The target of the test is human NAMPT (Homo sapiens, UniProt P43490). Description: Human recombinant enzyme assay (NMN fluorescence biochemical assay, activation of NAMPT). In a few lines: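 Activation of recombinant human NAMPT (6 nM) with 2.5 mM ATP, 20 μM PRPP and 150 μM nicotinamide in 50 mM HEPES pH 7.2, 1 mM DTT, 1 mM CHAPS, 50 mM NaCl, 100 mM MgCl2; 60 min, ambient temperature. NMN formed was derivatized with acetophenone/KOH/formic acid, fluorescence read at 355/460 nm after 40 min.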

Setting [1] is: Table A, human recombinant NAMPT, NMN formation, 60 min.
Where [2] appears, read: Table A, human recombinant NAMPT, NMN formation, 60 min, read-out: EC50 Human.

Read-outs that look alike come from different tables or passages of the source.

Sequence of human NAMPT (P43490 whole entry): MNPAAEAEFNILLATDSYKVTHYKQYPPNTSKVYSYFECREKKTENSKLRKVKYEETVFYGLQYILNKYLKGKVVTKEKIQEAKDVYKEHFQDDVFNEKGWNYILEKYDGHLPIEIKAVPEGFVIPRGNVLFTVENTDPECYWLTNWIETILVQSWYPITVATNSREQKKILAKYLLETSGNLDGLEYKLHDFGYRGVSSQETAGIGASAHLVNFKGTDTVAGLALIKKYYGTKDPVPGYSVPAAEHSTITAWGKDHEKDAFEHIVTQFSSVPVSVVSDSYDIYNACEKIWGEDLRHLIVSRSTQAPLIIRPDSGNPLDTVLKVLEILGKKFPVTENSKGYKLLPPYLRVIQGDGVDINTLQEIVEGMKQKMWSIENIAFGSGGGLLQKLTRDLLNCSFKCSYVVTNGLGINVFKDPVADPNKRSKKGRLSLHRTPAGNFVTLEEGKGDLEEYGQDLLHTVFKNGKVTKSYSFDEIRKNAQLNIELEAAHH

For orientation: EC50 means the concentration that produces a half-maximal response. Turning to `COc1ccc(CNC(=O)NC2CC3(CC(Cc4ccccc4C)C3)C2)cc1` (stereo not shown) [Compound 336, 1-(4-methoxybenzyl)-3-(6-(2-methylbenzyl)spiro[3.3]heptan-2-yl)urea], the “AC1.4 Human” value under setting [1] was 0.7 µM. Further, the EC50 under setting [2] worked out at 2.1 µM.
Consider `CN1CC(C(=O)N2CCC(CCCCNC(=O)NCc3ccc(Cl)cc3)CC2)CC1=O` (stereo not shown) [Compound 304, 1-(4-chlorobenzyl)-3-(4-(1-(1-methyl-5-oxopyrrolidine-3-carbonyl)piperidin-4-yl)butyl)urea], for which the “AC1.4 Human” value under setting [1] is 1.7 µM. The EC50 under setting [2] was 10.6 µM.
For the compound `Cc1ccc(C(=O)NC2CC3(CC(NC(=O)NCc4ccc(Cl)cc4)C3)C2)cn1` (stereo not shown) [Compound 192, N-(6-(3-(4-chlorobenzyl)ureido)spiro[3.3]heptan-2-yl)-6-methylnicotinamide], the “AC1.4 Human” value under setting [1] turned out to be 12.1 µM. Moreover, the EC50 under setting [2] was found to be 52.8 µM.
As for `CC(C)(C)CN1CCN(C(=O)CCCCCNC(=O)NCc2ccc(Cl)cc2)CC1` [Compound 260, 1-(4-chlorobenzyl)-3-(6-(4-neopentylpiperazin-1-yl)-6-oxohexyl)urea], the “AC1.4 Human” value under setting [1] was 2.0 µM. The concentration giving a half-maximal response (EC50) under setting [2] was 17.5 µM.
As for `O=C(NCc1ccc(Cl)cc1)NC1CC2(CC(CNC(=O)C3CCCC3)C2)C1` (stereo not shown) [Compound 251, N-((6-(3-(4-chlorobenzyl)ureido)spiro[3.3]heptan-2-yl)methyl)cyclopentanecarboxamide], under setting [1], the “AC1.4 Human” value was 2.6 µM. For the same compound, the EC50 under setting [2] was 6.1 µM.
The like results for `COc1ccc(CNC(=O)NCCCCCCOc2ccccc2)cc1` [Compound 150, 1-(4-methoxybenzyl)-3-(6-phenoxyhexyl)urea] were, in that order, 2.0 µM and 5.3 µM.
The matching figures for `COc1ccc(CNC(=O)NC2CC3(C2)CC(C(=O)N[C@H]2C[C@H](c4ccccc4)C2)C3)cc1` (stereo partly shown) [Compound 63, 6-(3-(4-methoxybenzyl)ureido)-N-((1r,3r)-3-phenylcyclobutyl)spiro[3.3]heptane-2-carboxamide]: 4.4 µM and 4.4 µM.
Consider `Cc1cccc(C(=O)NCCCCCNC(=O)NCc2ccc(Cl)cc2)c1` [Compound 276, N-(5-(3-(4-chlorobenzyl)ureido)pentyl)-3-methylbenzamide], for which the “AC1.4 Human” value under setting [1] stood at 1.5 µM. Further, under setting [2], the EC50 came out at 9.5 µM.
As for `COc1ccc(CNC(=O)NC2CC3(C2)CC(C(=O)Nc2ccccc2)C3)cc1` (stereo not shown) [Compound 86, 6-(3-(4-methoxybenzyl)ureido)-N-phenylspiro[3.3]heptane-2-carboxamide], the “AC1.4 Human” value under setting [1] was found to be 4.7 µM. Moreover, the half-maximal effective concentration (EC50) under setting [2] was determined as 49.4 µM.
In the case of `COc1ccc(CNC(=O)NC2CC3(C2)CC(C(=O)N2CC(c4ccccc4)C2)C3)cc1` (stereo not shown) [Compound 61, 1-(4-methoxybenzyl)-3-(6-(3-phenylazetidine-1-carbonyl)spiro[3.3]heptan-2-yl)urea], the “AC1.4 Human” value under setting [1] turned out to be 2.5 µM. For the same compound, the EC50 under setting [2] turned out to be 34.9 µM.
On to `COc1ccc(CNC(=O)NC2CC3(C2)CC(C(=O)NC2Cc4ccccc4C2)C3)cc1` (stereo not shown) [Compound 95, N-(2,3-dihydro-1H-inden-2-yl)-6-(3-(4-methoxybenzyl)ureido)spiro[3.3]heptane-2-carboxamide], for which, under setting [1], the “AC1.4 Human” value amounted to 4.3 µM. In addition, the half-maximal effective concentration (EC50) under setting [2] is 13.3 µM.
With `Cc1ccc(C(C)(O)C2CC3(CC(NC(=O)NCc4ccc(Cl)cc4)C3)C2)cn1` (stereo not shown) [Compound 338, 1-(4-chlorobenzyl)-3-(6-(1-hydroxy-1-(6-methylpyridin-3-yl)ethyl)spiro[3.3]heptan-2-yl)urea], under setting [1], the “AC1.4 Human” value was determined as 6.4 µM. The concentration for a half-maximal effect (EC50) under setting [2] was 10.3 µM.
Take `COc1ccccc1S(=O)(=O)N1CC2(CC(NC(=O)NCc3ccc(Cl)cc3)C2)C1` [Compound 218, 1-(4-chlorobenzyl)-3-(2-((2-methoxyphenyl)sulfonyl)-2-azaspiro[3.3]heptan-6-yl)urea]: the “AC1.4 Human” value under setting [1] was found to be 13.2 µM. Besides, the EC50 under setting [2] was determined as 22.5 µM.
The like results for `COc1ccc(CNC(=O)NC2CC3(C2)CC(C(=O)NCC(C)(C)c2ccncc2)C3)cc1` (stereo not shown) [Compound 80, 6-(3-(4-methoxybenzyl)ureido)-N-(2-methyl-2-(pyridin-4-yl)propyl)spiro[3.3]heptane-2-carboxamide] were, in that order, 2.4 µM and 45.4 µM.
For `O=C(NCc1ccc(Cl)cc1)NC1CC2(C1)CC(Oc1ccncc1)C2` (stereo not shown) [Compound 341, 1-(4-chlorobenzyl)-3-(6-(pyridin-4-yloxy)spiro[3.3]heptan-2-yl)urea], under setting [1], the “AC1.4 Human” value came out at 3.9 µM. Under setting [2], the 50% effective concentration (EC50) is 2 µM.
With `COc1ccc(CNC(=O)NC2CC3(C2)CC(C(=O)NCc2ccncc2)C3)cc1` (stereo not shown) [Compound 50, 6-(3-(4-methoxybenzyl)ureido)-N-(pyridin-4-ylmethyl)spiro[3.3]heptane-2-carboxamide], the “AC1.4 Human” value under setting [1] came to 17.9 µM. The EC50 under setting [2] was 32.8 µM.
As to `COc1ccc(CNC(=O)NC2CC3(C2)CC(c2nc(-c4ccccc4)co2)C3)cc1` (stereo not shown) [Compound 326, 1-(4-methoxybenzyl)-3-(6-(4-phenyloxazol-2-yl)spiro[3.3]heptan-2-yl)urea], under setting [1], the “AC1.4 Human” value worked out at 4.5 µM.
On to `Cn1cc(C(=O)N2CCC(CCCCNC(=O)NCc3ccc(Cl)cc3)CC2)nn1` [Compound 312, 1-(4-chlorobenzyl)-3-(4-(1-(1-methyl-1H-1,2,3-triazole-4-carbonyl)piperidin-4-yl)butyl)urea], for which the “AC1.4 Human” value under setting [1] is 1.5 µM. In addition, under setting [2], the EC50 was determined as 5.4 µM.
With `CC1CCC(=O)N1CC1CC2(C1)CC(NC(=O)NCc1ccc(Cl)cc1)C2` (stereo not shown) [Compound 241, 1-(4-chlorobenzyl)-3-(6-((2-methyl-5-oxopyrrolidin-1-yl)methyl)spiro[3.3]heptan-2-yl)urea], the “AC1.4 Human” value under setting [1] was found to be 2.7 µM. Also, under setting [2], the 50% effective concentration (EC50) came out at 5.7 µM.
As to `O=C(NCCCCCNC(=O)c1cccnc1)NCc1ccc(Cl)cc1` [Compound 277, N-(5-(3-(4-chlorobenzyl)ureido)pentyl)nicotinamide], under setting [1], the “AC1.4 Human” value came out at 3.2 µM. For the same compound, the concentration for a half-maximal effect (EC50) under setting [2] worked out at 6.9 µM.
The matching figures for `CC1(C)CCC(NC(=O)NCc2ccc(C(N)=O)cc2)CC1` [Compound 3, 4-((3-(4,4-dimethylcyclohexyl)ureido)methyl)benzamide]: 17.5 µM and 41.4 µM.
For the compound `COc1ccc(CNC(=O)NC2CC3(C2)CC(C(=O)NCCc2ccccc2)C3)cc1` (stereo not shown) [Compound 69, 6-(3-(4-methoxybenzyl)ureido)-N-phenethylspiro[3.3]heptane-2-carboxamide], the concentration for a half-maximal effect (EC50) is 38.4 µM. The “AC1.4 Human” value under setting [1] stood at 4.7 µM.
Regarding `COc1ccc(C(=O)N2CC[C@]3(C2)C[C@H](NC(=O)NCc2ccc(Cl)cc2)C3)cc1` [Compound 165, 1-(4-chlorobenzyl)-3-((2s,4r)-6-(4-methoxybenzoyl)-6-azaspiro[3.4]octan-2-yl)urea], the “AC1.4 Human” value under setting [1] was found to be 15.9 µM. Moreover, the EC50 under setting [2] was 49.4 µM.
Regarding `COc1ccc(CNC(=O)NC2CC3(CC(Cc4cccc(C)c4)C3)C2)cc1` (stereo not shown) [Compound 335, 1-(4-Methoxybenzyl)-3-(6-(3-methylbenzyl)spiro[3.3]heptan-2-yl)urea], under setting [1], the “AC1.4 Human” value was determined as 1.1 µM. Under setting [2], the concentration for a half-maximal effect (EC50) came to 2.2 µM.
Turning to `O=C(CCCCCNC(=O)NCc1ccc(Cl)cc1)Nc1ccccc1-c1ccccc1` [Compound 273, N-([1,1′-biphenyl]-2-yl)-6-(3-(4-chlorobenzyl)ureido)hexanamide], the “AC1.4 Human” value under setting [1] is 0.9 µM. Besides, the concentration giving a half-maximal response (EC50) under setting [2] is 0.3 µM.

Source of the values: patent US20230348369A1 (Cytokinetics, Inc., priority 2020, published 2023).
